A short description of the data set: solvent given as SMILES.

The structures appear in SMILES notation. Values joined by “and” are separate entries in the source; they are usually repeats but may differ in a detail not shown here. Equal entries are not always repeated.

Consider `c1ccc2c(c1)c1ccccc1n2-c1ccc(-c2ccn3nc(-c4ccc(-n5c6ccccc6c6ccccc65)cc4)nc3c2)cc1`, for which, under “in C1CCOC1”, the absorption maximum was 342 nm.

Take `CCCCOc1c(C=C2N(C)c3ccccc3C2(C)C)c(=O)c1=S`: for the setting “in CCO”, the absorption maximum amounted to 500 nm.

Consider `CCN(CC)c1c2ccc(=[N+]3CCCCC3)cc-2oc2cc(N3CCCCC3)ccc12`, for which the absorption maximum (in ClCCl) turned out to be 499 nm.

Take `Nc1ccc2c(c1)C(=O)c1ccccc1-2`: the absorption maximum runs as follows: (in C1CCCCC1) 455 nm; (in CC#N) 481 nm; (in CCO) 488 nm; (in c1ccccc1) 469 nm.

In turn, `C(=C\c1ccc(N(c2ccccc2)c2ccccc2)cc1)/c1ccccc1` returned an absorption maximum (in CC#N) of 362 nm and an absorption maximum (in CCCCCC) of 362 nm.

`CCCCn1c(-c2ccc(-c3nnc(-c4ccc5ccccc5c4)o3)cc2)nc2c3ccccc3c3ccccc3c21` showed an absorption maximum (in ClCCl) of 363 nm.

With `CC/[NH+]=c1\cc2oc3cc(NCCC(=O)NC(C(=O)OC)c4ccccc4)c4ccccc4c3nc-2cc1C` (stereo unspecified), the absorption maximum reads like this: (in CCO) 580 nm; (in O) 590 nm.

Regarding `CN(C)c1ccc2nc(-c3ccc(C(=O)Nc4ccccc4)cc3)sc2c1`, the absorption maximum was 387 nm and 384 nm (in C1CCCCC1); 388 nm (in CC#N); 389 nm (in CC(C)O); 389 nm (in CO); 396 nm (in CS(C)=O); 383 nm (in ClC(Cl)Cl). Moreover, the absorption maximum (in c1ccccc1) is reported as 392 nm.

Regarding `Cc1ccc(-c2ccc(/C=C/c3ccccc3)cn2)nc1`, the absorption maximum (in CC#N) amounted to 335 nm.

Compound `c1ccc(-c2nc3nc4ccccc4nc3n2-c2ccccc2)cc1` showed an absorption maximum (in CC#N) of 348 nm.

Under “in ClCCl”, `COc1ccc(/C=C/c2cc(/C=C/c3ccc(OC)cc3)ncn2)cc1` came in with an absorption maximum of 359 nm.

`C(S/C=C/c1ccc(-c2ccc(/C=C/SC=C3CCCCC3)cc2)cc1)=C1CCCCC1` gave an absorption maximum (in ClCCl) of 351 nm.

Turning to `Oc1ccc(/N=C/c2ccccc2Oc2ccccc2)cc1`, the absorption maximum is 348 nm (in C1CCCCC1); 341 nm (in C1COCCO1); 350 nm (in CC#N); 342 nm (in CC(C)=O); 344 nm (in CC(C)CO); 344 nm (in CC(C)O). Further, the absorption maximum (in CCCCC) amounted to 341 nm; the absorption maximum (in CCCCCC) is listed as 346 nm; the absorption maximum (in CCCCO) is 346 nm; the absorption maximum (in CCCCOC(C)=O) amounted to 346 nm; the absorption maximum (in CCCO) came to 345 nm; the absorption maximum (in CCOC(C)=O) came out at 340 nm. Moreover, the absorption maximum by setting is: (in CCOCC) 345 nm; (in CN(C)C=O) 345 nm; (in CO) 342 nm; (in CS(C)=O) 348 nm; (in Cc1ccccc1) 342 nm; (in Cc1ccccc1C) 382 nm. Moreover, the absorption maximum runs as follows: (in ClC(Cl)Cl) 343 nm; (in N#Cc1ccccc1) 341 nm; (in c1ccccc1) 345 nm.

In turn, `CCOC(=O)c1c2c3c(ccc([N+](=O)[O-])c3c3cc4c(cc13)[Si](C)(C)O[Si]4(C)C)N(C)C2=O` returned an absorption maximum (in CC#N) of 376 nm.

As to `CCOC(=O)C1=C(C(=O)OCC)C2(c3ccccc3-c3c(Br)cc(Br)cc32)C2(/C=C/c3ccc(Cl)cc3)c3cc(OC)c(OC)cc3CCN12` (stereo unspecified), where the note is “in ClCCl”, the absorption maximum is given as 329 nm.

The compound `CCCN1c2ccccc2Sc2cc(/C=C\c3cc(=O)oc4ccc(C)cc34)ccc21` showed an absorption maximum (in ClC(Cl)Cl) of 423 nm.

On to `Cc1cc(C)c(C2=C3C=CC=[N+]3[B-]3(c4ccccc4)Oc4cc(O)cc5c6ccc(C)cc6c6cc2n3c6c45)c(C)c1` (stereo unspecified), for which, under “in ClC(Cl)Cl”, the absorption maximum came out at 643 nm.

In the case of `O=C(c1ccc2c3c(cccc13)-c1cccc3c1C2CC=C3)c1c(Cc2ccccc2)c2ccc3cccc4c5cccc6ccc1c(c65)c2c34` (stereo unspecified), under “in ClCCl”, the absorption maximum is listed as 467 nm.

Regarding `CCCCC(CC)CN1C(=O)c2cccc3c(C#Cc4ccc(N(c5ccccc5)c5ccccc5)cc4)ccc(c23)C1=O` (stereo unspecified), the absorption maximum by setting is: (in C1CCCCC1) 422 nm; (in C1CCOC1) 434 nm; (in CC#N) 433 nm; (in Cc1ccccc1) 438 nm; (in ClC(Cl)Cl) 450 nm.

With `CCOC(=O)c1ccccc1-c1c2ccc(=O)cc-2oc2cc(OC(=O)[C@H](CSCc3ccc(C)cc3)NC(=O)OC(C)(C)C)ccc12`, the absorption maximum (in C1CCOC1) is given as 431 nm, the absorption maximum (in CC#N) came out at 431 nm, the absorption maximum (in CCO) is 435 nm and the absorption maximum (in CS(C)=O) is on record as 457 nm.

In the case of `Cc1c(C(=O)c2ccc(C(F)(F)F)cc2)c2ccc3cccc4c5cccc6ccc1c(c65)c2c34`, where the note is “in ClCCl”, the absorption maximum was determined as 370 nm.

Turning to `CC(C)(C)OC(=O)/C=C/C1=CC2=C(c3ccccc3)c3cccn3[B-](F)(F)[N+]2=C1`, where the note is “in ClCCl”, the absorption maximum is 538 nm.

Turning to `CCCCCCN(CCCCCC)c1ccc(C#Cc2ccc(C(F)(F)F)cc2)cc1`, the absorption maximum by setting is: (in CO) 356 nm; (in ClCCl) 362 nm.

As for `Cc1ccc(C2=C3C=CC(/C=C/c4ccccc4)=[N+]3[B-](F)(F)n3c(/C=C/c4ccccc4)ccc32)cc1`, the absorption maximum (in C1CCCCC1) is on record as 630 nm; the absorption maximum (in C1CCOC1) is listed as 632 nm; the absorption maximum (in C1COCCO1) is 633 nm; the absorption maximum (in CO) worked out at 626 nm; the absorption maximum (in ClC(Cl)Cl) amounted to 635 nm.

`Cc1ccccc1C(=O)NN1C2=C(CC3=C1CC(C)(C)CC3=O)C(=O)CC(C)(C)C2`: the absorption maximum runs as follows: (in C1CCOC1) 370 nm; (in CC#N) 370 nm; (in CC(C)=O) 368 nm; (in CCCCCO) 378 nm; (in CO) 376 nm; (in ClC(Cl)Cl) 370 nm. This compound also yielded an absorption maximum (in ClCCl) of 368 nm.

In turn, `F[B-]1(F)N2C=CN=CC2=[N+]2[N+]1=Cc1c(-c3ccccc3)cc(-c3ccccc3)n1[B-]2(F)F` showed an absorption maximum (in ClCCl) of 528 nm.

For `CCN(CC)c1ccc(-c2nc3c(nc2-c2ccc([B-](F)(c4c(C)cc(C)cc4C)c4c(C)cc(C)cc4C)cc2)c2ccccc2n3C)cc1`, the absorption maximum (in C1CCOC1) turned out to be 414.75 nm.

Take `COCc1ncc(-c2c3ccccc3c(-c3cnc(COC)nc3)c3ccccc23)cn1`: the absorption maximum by setting is: (in CCO) 395 nm; (in ClCCl) 397 nm.

`CCCC1(CCC)c2cc(-c3ccc(C(C)(C)CC)cc3)ccc2-c2ccc(-c3ccc(C(C)(C)CC)cc3)cc21`: the absorption maximum (in C1CCCCC1) was determined as 328 nm.

As to `O=C1c2ccccc2C2=Nc3cccc[n+]3[B-](F)(F)N12`, the absorption maximum (in ClCCl) stood at 361 nm.

As for `CCCCC1=Cc2c3ccc4cccc5ccc(c6cc(-c7ccccc7)n(c26)P1(=O)c1ccccc1)c3c45` (stereo unspecified), the absorption maximum is, setting by setting: (in C1CCCCC1) 430 nm; (in C1CCOC1) 430 nm; (in C1COCCO1) 430 nm; (in CC#N) 426 nm; (in CC(C)=O) 427 nm; (in CO) 426 nm. Moreover, the absorption maximum came out at 433 nm (in Cc1ccccc1), 431 nm (in ClC(Cl)Cl) and 430 nm (in ClCCl).

Regarding `CC(C)(C)c1cc2c3c(c1)-c1cccc4c1N(B3N1c3ccccc3Sc3cccc-2c31)c1ccccc1S4`, the absorption maximum (in C1CCOC1) amounted to 381 nm.

Under “in ClC(Cl)Cl”, `CC(C)(C)c1cccc2c1oc1nc3oc4ccc(-n5c6ccccc6c6ccccc65)cc4c3cc12` came in with an absorption maximum of 348 nm.

Values taken from the Deep4Chem optical property database.
